Assay results as given in patent US5162361A, “Method of treating diseases associated with elevated levels of interleukin 1” (priority 1990, dated 1992).
“Also recorded” adds a separate entry of the source.

Tests used:
Format in all cases: cell-based, rat
IL-1 = IL-1 release from alveolar macrophages (thymocyte co-stimulation bioassay); details: 24 h after LPS (5 ng/ml), FIG. 1a
Procedure: Pulmonary alveolar macrophages were collected by lavaging the lungs as previously described (D. B. Warheit et al., Am. Rev. Resp. Dis. 134, 128 (1986)). Once washed and resuspended, the macrophages were allowed to adhere to plastic plates in serum free RPMI 1640 containing 25 mM Hepes, 2 mM L-glutamine, 50 μg/ml gentamicin and streptomycin (media). Following adherence for 1 hour at 37° C. in 5% CO2, the plates were washed once with warm media to remove nonadherent cells, cells were resuspended in media with 10% FCS and treated with or without pentamidine at the indicated concentration and LPS (5 ng/ml) for 24 hours). IL-1 activity was assayed using a thymocyte co-stimulation assay (S. B. Mizel in Methods in Macrophage Biology, Editors, Herscowitz and Holden (1981)). Single cell thymocyte suspension from B6C3F1 mice (female, 5-9 weeks old) at a concentration of 2.0×10^7 /ml in media containing 10% FCS, and 2.5×10^-5 M 2-β mercaptoethanol were added in 50 μl aliquots to each well of flat bottom microtiter plates along with 50 μl of PHA at 2.5 μg/ml. Serial dilution of supernatants or cells were made in media with 10% FCS and added in 100 μl aliquots. IL-1 activity was measured by quantifying the uptake of 3Hthymidine during the last 6 hours of a 72 hour culture at 37° C. and 5% CO2. Cells were harvested onto glass fiber filters and filter associated radioactivity counted in a scintillation counter.
In vitro studies were performed by taking alveolar macrophages from normal healthy rat lungs and culturing them in the presence of an imidazoline with the inducer lipopolysaccharide for 24 hours. The standard bioassay for IL-1 was performed (see above).

Ia antigen = Ia antigen expression on alveolar macrophages (flow cytometry)
Procedure: ^a Ia antigen expression - Alveolar macrophages were diluted to 1×10^6 cells/ml in RPMI (supplemented as above). Three mls. (3×10^6 cells) were added to sterile teflon vials and treated with pentamidine or dexamethasone for 4 hours at 37° C., 5% CO2, followed by the addition of rat γ IFN at 100 U/ml. Cells were incubated for 18 hours, pelleted, counted and adjusted to 1×10^7 cells/ml in ice cold standard buffer (HBSS, 0.1% Na azide, 1% BSA).
Aliquots of cells (50 μl in quadruplicate) from the various treatment groups were plated to a 96 well round bottom plate (Linbro) and incubated for 45 minutes on ice with 50 μl aliquots of one of the following: monoclonal anti-rat OXS (Sera-lab), monoclonal anti-mouse OX6 (Sera-lab), both at 0.5 μg/5×10^5 cells, or HBSS (control). Cells were washed 3× with standard buffer and incubated for 45 minutes on ice, in the dark, with 50 μl of phycoerythrin-labeled goat anti-mouse IGGI (Fisher Biotech) at 1 μg/5×10^5 cells. Cells were washed 3× with standard buffer, resuspended in 0.4 ml of standard buffer and analyzed via flow cytometry.

IL-1α mRNA = assay: Northern blot analysis of IL-1α mRNA expression; details: 10 μM pentamidine, LPS, 3 h, FIG. 2
Procedure: Specific transcription of IL-1α mRNA synthesis was assessed by incubating cells with and without 10 μM pentamidine or 1 μM of the corticosteroid, dexamethasone in the presence or absence of lipopolysaccharide (LPS). At the end of a 3 hour incubation period, the cells were lysed and the total cellular RNA was collected, blotted onto a nitrocellulose filter and probed with ^32 P-labeled IL-1α cDNA. […] In contrast, mRNA for IL-1α was not seen in dexamethasone treated cells.
For determination of IL-1 mRNA levels, cells (4×10^6) were cultured with or without pentamidine (10 μM) or dexamethasone (1 μM) in media with 10% FCS in the presence or absence of LPS (1 μg/ml) for 3 hours. Total cellular RNA was isolated by quanidinium-thiocyanate phenolchloroform extraction (P. Chomczynski et al., Anal. Bioch. 162, 156 (1987)). RNA (10 μg) was electrophoresed in 1.2% agarose gels as previously described (H. Leharch et al., Biochemistry 4743 (1977)). […] Hybridizing species were detected by autoradiography at -70° C., using Kodak XAR film with an intensifying screen. The total RNA levels per lane on the gel was assessed by monitoring 28S and 18S, and expression of α-tubulin mRNA. Accumulation of α-tubulin mRNA was determined by probing the same blot with ^32 P labeled 30 mer oligonucleotide (Du Pont).

[1] = test system: Pulmonary alveolar macrophages; assay: Phagocytosis by pulmonary alveolar macrophages (Fluoresbrite beads, flow cytometry)
Procedure: One ml aliquots were added to sterile teflon vials (Nalgene) along with pentamidine or dexamethasone (Sigma) as indicated, and incubated for 4 hours at 37° C., 5% CO2. Fluoresbrite carboxylate beads, 1.73 μm (Polysciences) were used to achieve a 100:1 bead to cell ratio and the suspension was incubated for 45 minutes at 37° C., 5% CO2 with gentle agitation. Cell suspensions were then layered over 3 mls. of RPMI/FCS+0.3% BSA, and cells pelleted at 150 xg for 10 minutes. Supernates were discarded and cells resuspended in 1 ml of RPMI/FCS for analysis via flow cytometry. The data presented above is the mean of the percentage of cells taking up one or more beads of triplicate cultures.

N=C(N)c1ccc(OCCCCCOc2ccc(C(=N)N)cc2)cc1 [Pentamidine, 1,5-bis(4-amidinophenoxy)pentane]
IL-1 release (IL-1): decreased in a concentration dependant manner; also recorded: decreased in a concentration dependent manner | Ia Antigen Expression (MFI) (Ia antigen; Pentamidine 10^-5 M (control 459)): 464 MFI | Mean concentration of Ia molecules on Ia positive cells (Ia antigen; result in words): nor did it influence the mean concentration of Ia molecules on Ia positive cells | IL-1α mRNA expression (IL-1α mRNA): lack of effect on mRNA expression; also recorded: equal amounts of L-1α mRNA | Phagocytic Index ([1]; Pentamidine 10^-5 M (control 32)): 32% | Phagocytic capacity of alveolar macrophages ([1]; result in words): did not modulate the phagocytic capacity of alveolar macrophages
